Assay results published in ChEMBL document CHEMBL5532665 (J Med Chem, 2024).
Calls of active or inactive are those of the source. The calls are words filed in the database; no cut-off is given here.

Experiments:
Mu-type opioid receptor [1] = molecular target: T1, Mu-type opioid receptor (Homo sapiens, UniProt P35372); test: Agonist activity at human MOR expressed in CHO-K1 cells co-expressing G-alpha15 by calcium mobilization assay relative to control; type: functional, cell-based; conditions: filed as agonist
[2] = molecular target: T2, Delta-type opioid receptor (Homo sapiens, UniProt P41143); test: Agonist activity at human DOR expressed in CHO-K1 cells co-expressing G-alpha15 by calcium mobilization assay relative to control; type: functional, cell-based; conditions: filed as agonist
Mus musculus [3] = test: Antinociceptive activity in Kunming mouse model assessed as latency of tail withdrawal at 138.8 nmol/kg, sc measured for 10 mins by tail-flick test relative to control; type: functional
Mus musculus [4] = test: Antinociceptive activity in Kunming mouse model assessed as latency of tail withdrawal at 138.8 nmol/kg, sc measured for 30 mins by tail-flick test relative to control; type: functional; conditions: 0.5 h
Mus musculus [5] = test: Antinociceptive activity in Kunming mouse model assessed as latency of tail withdrawal at 138.8 nmol/kg, sc measured for 60 mins by tail-flick test relative to control; type: functional; conditions: 1 h
Mus musculus [6] = test: Antinociceptive activity in Kunming mouse model assessed as latency of tail withdrawal at 138.8 nmol/kg, sc measured for 120 mins by tail-flick test relative to control; type: functional; conditions: 2 h
Mu-type opioid receptor [7] = molecular target: T1, Mu-type opioid receptor; test: Agonist activity at human MOR expressed in CHO-K1 cells co-expressing G-alpha15 by calcium mobilization assay; type: functional, cell-based
Mus musculus [8] = test: Antinociceptive activity in Kunming mouse model assessed as latency of tail withdrawal at 1416 nmol/kg, sc measured for 10 mins by tail-flick test relative to control; type: functional
Mus musculus [9] = test: Antinociceptive activity in Kunming mouse model assessed as latency of tail withdrawal at 1416 nmol/kg, sc measured for 30 mins by tail-flick test relative to control; type: functional; conditions: 0.5 h
Mus musculus [10] = test: Antinociceptive activity in Kunming mouse model assessed as latency of tail withdrawal at 1416 nmol/kg, sc measured for 60 mins by tail-flick test relative to control; type: functional; conditions: 1 h
Mus musculus [11] = test: Antinociceptive activity in Kunming mouse model assessed as latency of tail withdrawal at 1416 nmol/kg, sc measured for 120 mins by tail-flick test relative to control; type: functional; conditions: 2 h
[12] = molecular target: T3, Kappa-type opioid receptor (Homo sapiens, UniProt P41145); test: Agonist activity at human KOR expressed in CHO-K1 cells co-expressing G-alpha15 by calcium mobilization assay; type: functional, cell-based
[13] = molecular target: T2, Delta-type opioid receptor; test: Agonist activity at human DOR expressed in CHO-K1 cells co-expressing G-alpha15 by calcium mobilization assay; type: functional, cell-based
[14] = molecular target: T3, Kappa-type opioid receptor; test: Agonist activity at human KOR expressed in CHO-K1 cells co-expressing G-alpha15 by calcium mobilization assay relative to control; type: functional, cell-based
[15] = Stability in mouse plasma assessed as half life at 0.01 mol/L measured for 72 hrs by RP-HPLC analysis; type: ADME, cell-free
[16] = molecular target: T3, Kappa-type opioid receptor; test: Agonist activity at human KOR expressed in CHO-K1 cells co-expressing G-alpha15 upto 100 uM by calcium mobilization assay; type: functional, cell-based

T3 sequence (P41145 whole entry): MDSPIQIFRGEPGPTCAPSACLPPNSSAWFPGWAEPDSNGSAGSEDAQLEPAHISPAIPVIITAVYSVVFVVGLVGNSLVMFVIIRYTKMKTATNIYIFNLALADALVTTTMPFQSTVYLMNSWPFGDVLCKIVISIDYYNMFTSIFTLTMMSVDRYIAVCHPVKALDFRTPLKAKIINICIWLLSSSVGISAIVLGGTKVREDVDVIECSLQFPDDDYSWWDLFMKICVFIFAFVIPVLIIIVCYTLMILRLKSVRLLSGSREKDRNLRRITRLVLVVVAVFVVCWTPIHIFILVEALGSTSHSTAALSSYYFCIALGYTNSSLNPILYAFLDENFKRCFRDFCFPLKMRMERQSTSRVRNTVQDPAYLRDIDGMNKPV
T2 sequence (P41143 whole entry): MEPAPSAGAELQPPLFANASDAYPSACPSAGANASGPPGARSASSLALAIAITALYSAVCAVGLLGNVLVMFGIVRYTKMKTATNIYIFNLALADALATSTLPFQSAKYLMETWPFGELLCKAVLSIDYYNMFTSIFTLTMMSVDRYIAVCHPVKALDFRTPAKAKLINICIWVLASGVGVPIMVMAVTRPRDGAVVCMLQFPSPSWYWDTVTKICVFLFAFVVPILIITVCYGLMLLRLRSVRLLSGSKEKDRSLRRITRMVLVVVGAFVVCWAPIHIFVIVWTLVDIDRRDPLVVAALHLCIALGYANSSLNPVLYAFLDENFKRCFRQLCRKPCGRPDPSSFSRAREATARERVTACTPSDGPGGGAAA
T1 sequence (P35372 whole entry): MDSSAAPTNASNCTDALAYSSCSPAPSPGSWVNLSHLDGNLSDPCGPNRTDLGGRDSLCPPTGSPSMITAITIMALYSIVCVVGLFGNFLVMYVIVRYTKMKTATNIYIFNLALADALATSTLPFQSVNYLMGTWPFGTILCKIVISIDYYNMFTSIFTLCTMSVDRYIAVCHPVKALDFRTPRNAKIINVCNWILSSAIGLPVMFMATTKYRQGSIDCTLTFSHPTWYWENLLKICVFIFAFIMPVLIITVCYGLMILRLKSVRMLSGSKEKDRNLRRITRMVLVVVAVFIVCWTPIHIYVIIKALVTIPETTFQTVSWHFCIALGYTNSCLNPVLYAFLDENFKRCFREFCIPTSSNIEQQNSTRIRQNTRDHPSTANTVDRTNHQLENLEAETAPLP

CN1CC(=O)N[C@@H](Cc2ccccc2)C(=O)N[C@@H](C(=O)N2CCC[C@H]2C(N)=O)CC(=O)NCCCC[C@@H](NC(=O)[C@@H](N)Cc2ccc(O)cc2)C1=O
Emax (Mu-type opioid receptor [1]): 118% | Emax [2]: 100%

Cc1ccc(C[C@@H]2NC(=O)CNC(=O)[C@H](NC(=O)[C@@H](N)Cc3ccc(O)cc3)CCCCNC(=O)C[C@@H](C(=O)N3CCC[C@@H]3C(N)=O)NC2=O)cc1 [listing 1 of 2 here]
MPE (Mus musculus [3]): 44.8% | MPE (Mus musculus [4]): 95.6% | MPE (Mus musculus [5]): 67.1% | MPE (Mus musculus [6]): 39.2%

NC(=O)[C@H]1CCCN1C(=O)[C@@H]1CC(=O)NCCCC[C@@H](NC(=O)[C@@H](N)Cc2ccc(O)cc2)C(=O)NCCC(=O)N[C@@H](Cc2ccccc2)C(=O)N1 [listing 1 of 2 here]
EC50 (Mu-type opioid receptor [7]; cho-k1): 974 nM

NC(=O)[C@H]1CCCN1C(=O)[C@@H]1CC(=O)NCCCC[C@@H](NC(=O)[C@@H](N)Cc2ccc(O)cc2)C(=O)NCC(=O)N[C@@H](Cc2ccccc2)C(=O)N1 [listing 1 of 2 here]
MPE (Mus musculus [8]): 65.5% | MPE (Mus musculus [9]): 91.2% | MPE (Mus musculus [10]): 63.7% | MPE (Mus musculus [11]): 33.6%

NC(=O)CNC(=O)[C@@H]1CC(=O)NCCCC[C@@H](NC(=O)[C@@H](N)Cc2ccc(O)cc2)C(=O)NCC(=O)N[C@@H](Cc2ccccc2)C(=O)N1
EC50 (Mu-type opioid receptor [7]; cho-k1): 113 nM | EC50 ([12]; cho-k1): 9200 nM | EC50 ([13]; cho-k1): 623 nM

NC(=O)[C@H]1CC(=O)NCCCC[C@@H](NC(=O)[C@@H](N)Cc2ccc(O)cc2)C(=O)NCC(=O)N[C@@H](Cc2ccccc2)C(=O)N1
Emax (Mu-type opioid receptor [1]): 103% | Emax ([14]; filed as agonist): 85.5% | Emax [2]: 125%

Cc1ccc(C[C@@H]2NC(=O)CNC(=O)[C@H](NC(=O)[C@@H](N)Cc3ccc(O)cc3)CCCCNC(=O)C[C@H](C(=O)N3CCC[C@H]3C(N)=O)NC2=O)cc1
Emax (Mu-type opioid receptor [1]): 109% | Emax ([14]; filed as agonist): 66.7% | Emax [2]: 115%

NC(=O)[C@H]1CCCN1C(=O)[C@@H]1CC(=O)NCCCC[C@@H](NC(=O)[C@@H](N)Cc2ccc(O)cc2)C(=O)NCCC(=O)N[C@@H](Cc2ccccc2)C(=O)N1 [listing 2 of 2 here]
MPE (Mus musculus [3]): 45.6% | MPE (Mus musculus [4]): 92.6% | MPE (Mus musculus [5]): 71% | MPE (Mus musculus [6]): 40.6%

NC(=O)[C@@H]1CCCN1C(=O)[C@H]1CC(=O)NCCCC[C@@H](NC(=O)[C@@H](N)Cc2ccc(O)cc2)C(=O)NCCC(=O)N[C@@H](Cc2ccccc2)C(=O)N1
Emax (Mu-type opioid receptor [1]): 95.9%

NC(=O)[C@H]1CCCN1C(=O)[C@@H]1CC(=O)NCCCC[C@@H](NC(=O)[C@@H](N)Cc2ccc(O)cc2)C(=O)NCC(=O)N(Cc2ccccc2)CC(=O)N1 [listing 1 of 2 here]
EC50 (Mu-type opioid receptor [7]; cho-k1): 36.1 nM | EC50 ([13]; cho-k1): 837 nM

CC1(C)NC(=O)[C@H](NC(=O)[C@@H](N)Cc2ccc(O)cc2)CCCCNC(=O)C[C@@H](C(=O)N2CCC[C@@H]2C(N)=O)NC(=O)[C@H](Cc2ccccc2)NC1=O
EC50 (Mu-type opioid receptor [7]; cho-k1): 5.3 nM | EC50 ([12]; cho-k1): 7250 nM | EC50 ([13]; cho-k1): 49.1 nM | half-life at 0.01 mol/L [15]: > 72 h

C[C@@H]1NC(=O)[C@H](NC(=O)[C@@H](N)Cc2ccc(O)cc2)CCCCNC(=O)C[C@H](C(=O)N2CCC[C@H]2C(N)=O)NC(=O)[C@H](Cc2ccccc2)NC1=O
EC50 (Mu-type opioid receptor [7]; cho-k1): 8.2 nM | Emax (Mu-type opioid receptor [1]): 93.7% | EC50 ([12]; cho-k1): 4820 nM | Emax ([14]; filed as agonist): 51.4% | EC50 ([13]; cho-k1): 52 nM | Emax [2]: 96.6% | MPE (Mus musculus [3]): 70.9% | MPE (Mus musculus [4]): 88.9% | MPE (Mus musculus [5]): 70.1% | MPE (Mus musculus [6]): 27.4%

NC(=O)[C@H]1CCCN1C(=O)[C@@H]1CC(=O)NCCCC[C@@H](NC(=O)[C@@H](N)Cc2ccc(O)cc2)C(=O)NCC(=O)N[C@@H](CC2CCCCC2)C(=O)N1
EC50 (Mu-type opioid receptor [7]; cho-k1): 43.2 nM | EC50 ([13]; cho-k1): 804 nM

NC(=O)[C@@H]1CC(=O)NCCCC[C@@H](NC(=O)[C@@H](N)Cc2ccc(O)cc2)C(=O)NCC(=O)N[C@@H](Cc2ccccc2)C(=O)N1
EC50 (Mu-type opioid receptor [7]; cho-k1): 1.4 nM | EC50 ([12]; cho-k1): 1290 nM | EC50 ([13]; cho-k1): 12.5 nM

Cc1cc(O)cc(C)c1C[C@H](N)C(=O)N[C@@H]1CCCCNC(=O)C[C@H](C(=O)N2CCC[C@H]2C(N)=O)NC(=O)[C@H](Cc2ccccc2)NC(=O)CNC1=O
Emax (Mu-type opioid receptor [1]): 101% | Emax [14]: 39.2% | Emax [2]: 116%

NC(=O)[C@@H]1CCCN1C(=O)[C@H]1CC(=O)NCCCC[C@@H](NC(=O)[C@@H](N)Cc2ccc(O)cc2)C(=O)NCC(=O)N(Cc2ccccc2)CC(=O)N1
Activity [16]: inactive | Emax (Mu-type opioid receptor [1]): 113% | Emax [2]: 88.9%

CN1CC(=O)N[C@@H](Cc2ccccc2)C(=O)N[C@H](C(=O)N2CCC[C@@H]2C(N)=O)CC(=O)NCCCC[C@@H](NC(=O)[C@@H](N)Cc2ccc(O)cc2)C1=O
EC50 (Mu-type opioid receptor [7]; cho-k1): 1150 nM | EC50 ([13]; cho-k1): 3030 nM

NC(=O)[C@@H]1CCCN1C(=O)[C@H]1CC(=O)NCCCC[C@@H](NC(=O)[C@@H](N)Cc2ccc(O)cc2)C(=O)NCC(=O)N[C@H](Cc2ccccc2)C(=O)N1
EC50 (Mu-type opioid receptor [7]): 41.6 nM | Activity [16]: inactive | Emax (Mu-type opioid receptor [1]): 104% | EC50 [13]: 965 nM | Emax [2]: 72.8% | MPE (Mus musculus [8]): 61.8% | MPE (Mus musculus [9]): 86.6% | MPE (Mus musculus [10]): 55.5% | MPE (Mus musculus [11]): 28.3%

NC(=O)[C@@H]1CCCN1C(=O)[C@H]1CC(=O)NCCCC[C@@H](NC(=O)[C@@H](N)Cc2ccc(O)cc2)C(=O)NCC(=O)N[C@@H](CC2CCCCC2)C(=O)N1
Emax (Mu-type opioid receptor [1]): 105% | Emax [2]: 54.4%

NC(=O)[C@H]1CCCN1C(=O)[C@@H]1CC(=O)NCCCC[C@@H](NC(=O)[C@@H](N)Cc2ccc(O)cc2)C(=O)NCC(=O)N(Cc2ccccc2)CC(=O)N1 [listing 2 of 2 here]
MPE (Mus musculus [8]): 46.8% | MPE (Mus musculus [9]): 91.4% | MPE (Mus musculus [10]): 76.3% | MPE (Mus musculus [11]): 7.7%

NC(=O)[C@H]1CCCN1C(=O)[C@@H]1CC(=O)NCCCC[C@@H](NC(=O)[C@@H](N)Cc2ccc(O)cc2)C(=O)NCC(=O)N[C@@H](Cc2ccc3ccccc3c2)C(=O)N1
EC50 (Mu-type opioid receptor [7]; cho-k1): 1.8 nM | EC50 ([13]; cho-k1): 2.2 nM | half-life at 0.01 mol/L [15]: 20.3 h

NC(=O)CNC(=O)[C@H]1CC(=O)NCCCC[C@@H](NC(=O)[C@@H](N)Cc2ccc(O)cc2)C(=O)NCC(=O)N[C@@H](Cc2ccccc2)C(=O)N1
Emax (Mu-type opioid receptor [1]): 91.1% | Emax ([14]; filed as agonist): 48.4% | Emax [2]: 104%

NC(=O)[C@H]1CCCN1C(=O)[C@@H]1CC(=O)NCCCC[C@@H](NC(=O)[C@@H](N)Cc2ccc(O)cc2)C(=O)NCC(=O)N[C@@H](Cc2ccccc2)C(=O)N1 [listing 2 of 2 here]
EC50 (Mu-type opioid receptor [7]): 31.1 nM | EC50 [12]: 2830 nM | EC50 [13]: 2.1 nM | half-life at 0.01 mol/L [15]: 41.9 h

NC(=O)[C@H]1CCCN1C(=O)[C@@H]1CC(=O)NCCCC[C@@H](NC(=O)[C@@H](N)Cc2ccc(O)cc2)C(=O)NCC(=O)N[C@@H](CCc2ccccc2)C(=O)N1
EC50 (Mu-type opioid receptor [7]; cho-k1): 184 nM | EC50 ([13]; cho-k1): 64.4 nM

NC(=O)[C@@H]1CCCN1C(=O)[C@H]1CC(=O)NCCCC[C@@H](NC(=O)[C@@H](N)Cc2ccc(O)cc2)C(=O)NCC(=O)N[C@@H](CCc2ccccc2)C(=O)N1
Activity [16]: inactive | Emax (Mu-type opioid receptor [1]): 99.8% | Emax [2]: 66.6%

Cc1ccc(C[C@@H]2NC(=O)CNC(=O)[C@H](NC(=O)[C@@H](N)Cc3ccc(O)cc3)CCCCNC(=O)C[C@@H](C(=O)N3CCC[C@@H]3C(N)=O)NC2=O)cc1 [listing 2 of 2 here]
EC50 (Mu-type opioid receptor [7]; cho-k1): 29.1 nM | EC50 ([12]; cho-k1): 2430 nM | EC50 ([13]; cho-k1): 22.2 nM

Cc1cc(O)cc(C)c1C[C@H](N)C(=O)N[C@@H]1CCCCNC(=O)C[C@@H](C(=O)N2CCC[C@@H]2C(N)=O)NC(=O)[C@H](Cc2ccccc2)NC(=O)CNC1=O
EC50 (Mu-type opioid receptor [7]; cho-k1): 7.3 nM | EC50 ([12]; cho-k1): 3550 nM | EC50 ([13]; cho-k1): 1.2 nM
